Measurements taken from ChEMBL document CHEMBL6153160, “Novel 3-Cycloaminoindole Compounds as Serotonergic Psychedelic Agents for Treating Psychosis, Mental Illness, and CNS Disorders” (ACS Med Chem Lett, 2025).

Biological target: 5-hydroxytryptamine receptor 2A (Homo sapiens, UniProt P28223)
Test: Displacement of [3H]-ketanserin from human 5-HT2A receptor incubated for 90 mins by microbeta2 microplate counter assay

5-hydroxytryptamine receptor 2A, sequence (P28223 whole entry): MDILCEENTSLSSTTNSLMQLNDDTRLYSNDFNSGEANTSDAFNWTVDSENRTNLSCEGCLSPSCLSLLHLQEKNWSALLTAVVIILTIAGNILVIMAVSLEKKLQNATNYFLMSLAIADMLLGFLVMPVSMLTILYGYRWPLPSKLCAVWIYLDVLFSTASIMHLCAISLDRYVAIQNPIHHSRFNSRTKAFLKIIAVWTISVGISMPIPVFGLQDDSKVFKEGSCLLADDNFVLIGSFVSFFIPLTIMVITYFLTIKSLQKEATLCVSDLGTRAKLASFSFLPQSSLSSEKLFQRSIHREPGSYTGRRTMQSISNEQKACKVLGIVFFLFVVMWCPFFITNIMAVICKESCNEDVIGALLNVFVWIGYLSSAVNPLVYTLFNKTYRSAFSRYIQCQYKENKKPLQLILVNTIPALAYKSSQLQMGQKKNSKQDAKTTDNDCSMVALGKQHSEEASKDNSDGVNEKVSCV

SMILES | IC50
[2H]c1[nH]c2c([2H])c([2H])c([2H])c([2H])c2c1C1CC([2H])([2H])N(C)C1([2H])[2H] (stereo not drawn) | < 0.5 µM
[2H]c1[nH]c2c([2H])c([2H])c([2H])c([2H])c2c1C1CCN(C)C1 (stereo not drawn) | < 0.5 µM
CN(C)CCc1c[nH]c2ccccc12 | < 0.5 µM
